{"source": "paper PMC3694332", "about": "(Biopharmaceutics & drug disposition, 2009)", "key": {"[1]": {"tested_on": "MRP1", "settings": "cited from earlier work"}, "[2]": {"tested_on": "CaCo2 cell monolayers", "settings": "cited from earlier work"}, "[3]": {"tested_on": "cellular GSH levels", "settings": "100 μM, 2 h incubation; cited from earlier work"}, "[4]": {"settings": "cited from earlier work"}, "[5]": {"settings": "rats; cited from earlier work"}, "[6]": {"tested_on": "MRP1", "settings": "Panc-1 cells, 100 μM isothiocyanate, 2 h; cited from earlier work"}, "[7]": {"settings": "rat, in vivo, cited from earlier work"}, "[8]": {"tested_on": "P-gp", "settings": "MCF7/ADR cells, 100 μM isothiocyanate, 2 h; cited from earlier work"}, "[9]": {"tested_on": "BCRP", "settings": "NHI-H460/MX20, BCRP; cited from earlier work"}, "[10]": {"tested_on": "BCRP", "settings": "FTC 10 μM, 25 μM PEITC; cited from earlier work"}, "[11]": {"tested_on": "MRP2", "settings": "cited from earlier work"}, "[12]": {"settings": "human, in vivo; cited from earlier work"}, "[13]": {"tested_on": "P-gp", "settings": "cited from earlier work; for investigated as substrate (S)/inhibitor (I): 8226/Dox, P-gp"}, "[14]": {"tested_on": "P-gp", "settings": "verapamil or PSC833; Caco-2, MCF-7/ADR, MDA435/LCC6, MDA435/LCC6MDR1 cells; cited from earlier work"}, "[15]": {"tested_on": "MRP1", "settings": "cited from earlier work", "remark": "listed apart in the source"}, "[16]": {"settings": "rats, cited from earlier work"}, "[17]": {"test": "Effect of BITC co-administration on topotecan pharmacokinetics", "settings": "Sprague-Dawley, rat, plasma"}}, "note": "Where two headings read alike, the source gives them in different places.", "data": [{"smiles": "C=CCN=C=S", "note": "[Allyl isothiocyanate]", "values": [{"measurement": "investigated as substrate (S)/inhibitor (I)", "setting": "[1]; HL60/AR, MRP1", "result": "Allyl isothiocyanate (S)"}]}, {"smiles": "S=C=NCc1ccccc1", "note": "[BITC, benzyl isothiocyanate]", "values": [{"measurement": "increase in accumulation of daunomycin", "setting": "[2]", "result": 1.75, "unit": "fold"}, {"measurement": "GSH, % of control values in untreated cells", "setting": "[3]", "result": "15.3±6.4 % of control"}, {"measurement": "decrease of cellular GSH levels", "setting": "[3]", "result": "decreased"}]}, {"smiles": "CC[C@@]1(O)C(=O)OCc2c1cc1n(c2=O)Cc2cc3c(CNC)c(O)ccc3nc2-1", "note": "[N-desmethyl topotecan]", "values": [{"measurement": "percent of N-desmethyl topotecan formed", "setting": "[4]; in the plasma", "result": "less than 0.7%"}, {"measurement": "percent of N-desmethyl topotecan formed", "setting": "[4]; in the urine", "result": "1–4%"}]}, {"smiles": "S=C=Nc1cccc2ccccc12", "note": "[NITC, α-naphthyl isothiocyanate]", "values": [{"measurement": "Nonlinear pharmacokinetics", "setting": "[5]", "result": "Yes"}, {"measurement": "decrease of cellular GSH levels", "setting": "[3]", "result": "not"}]}, {"smiles": "S=C=NCCc1ccccc1", "note": "[PEITC, phenethyl isothiocyanate]", "values": [{"measurement": "increase in accumulation of vinblastine", "setting": "[6]", "result": 2, "unit": "fold"}, {"measurement": "clearance", "setting": "[7]; 2 umol/kg", "result": 11.6, "unit": "mL/min/kg"}, {"measurement": "Half-life", "setting": "[7]; iv, 66 mg/kg", "result": "13.1 h (i.v.)"}, {"measurement": "Cmax", "setting": "[7]; po, 16.3 mg/kg", "result": 42.1, "unit": "µM"}, {"measurement": "Tmax", "setting": "[7]; po, 16.3 mg/kg", "result": 2.0, "unit": "h"}, {"measurement": "oral bioavailability", "setting": "[7]; po", "result": "high"}, {"measurement": "Nonlinear pharmacokinetics", "setting": "[7]", "result": "Yes"}, {"measurement": "increase in accumulation of vinblastine", "setting": "[8]", "result": "not"}, {"measurement": "investigated as substrate (S)/inhibitor (I)", "setting": "[9]", "result": "Phenethyl isothiocyanate (S)"}, {"measurement": "decrease of ATP-dependent accumulation of PEITC in inside-out vesicles by FTC", "setting": "[10]", "result": 1.7, "unit": "fold"}, {"measurement": "increase in accumulation of daunomycin", "setting": "[2]", "result": 1.85, "unit": "fold"}, {"measurement": "increase of intracellular 14C accumulation by MK571", "setting": "[11]; 50 μM MK571, PEITC 1 μM", "result": 2.5, "unit": "fold"}, {"measurement": "increase of intracellular 14C accumulation by MK571", "setting": "[11]; 50 μM MK571, PEITC 5 μM", "result": 3.5, "unit": "fold"}, {"measurement": "increase of intracellular 14C accumulation by MK571", "setting": "[11]; 50 μM MK571, PEITC 10 μM", "result": 4.5, "unit": "fold"}, {"measurement": "increase of intracellular 14C accumulation by MK571", "setting": "[11]; 50 μM MK571, PEITC 50 μM", "result": 1.8, "unit": "fold"}, {"measurement": "intracellular 14C lower in MDCK/MRP2 than in wild type MDCKII cells", "setting": "[11]; PEITC 1 μM", "result": 55, "unit": "%"}, {"measurement": "intracellular 14C lower in MDCK/MRP2 than in wild type MDCKII cells", "setting": "[11]; PEITC 5 μM", "result": 14, "unit": "%"}, {"measurement": "intracellular 14C lower in MDCK/MRP2 than in wild type MDCKII cells", "setting": "[11]; PEITC 10 μM", "result": 12, "unit": "%"}, {"measurement": "intracellular 14C lower in MDCK/MRP2 than in wild type MDCKII cells", "setting": "[11]; PEITC 50 μM", "result": 61, "unit": "%"}, {"measurement": "CL/F", "setting": "[12]", "result": 29.5, "unit": "L/h"}, {"measurement": "Cmax", "setting": "[12]", "result": 0.928, "unit": "µM"}, {"measurement": "Half-life", "setting": "[12]", "result": 4.9, "unit": "h"}, {"measurement": "Tmax", "setting": "[12]", "result": 2.6, "unit": "h"}, {"measurement": "investigated as substrate (S)/inhibitor (I)", "setting": "[13]", "result": "Phenethyl isothiocyanate (S)"}, {"measurement": "accumulation of 14C-PEITC in absence and presence of P-gp inhibitor", "setting": "[14]", "result": "not changed"}, {"measurement": "GSH, % of control values in untreated cells", "setting": "[3]", "result": "10±3.5 % of control"}, {"measurement": "decrease of cellular GSH levels", "setting": "[3]", "result": "decreased"}, {"measurement": "change of 14C tracer accumulation by MK571", "setting": "[15]; 100 μM MK571, higher PEITC concentrations", "result": "did not change"}, {"measurement": "increase of 14C tracer accumulation by MK571", "setting": "[15]; 2 h co-incubation with 100 μM MK571, PEITC 1 μM", "result": 6.8, "unit": "fold"}, {"measurement": "increase of 14C tracer accumulation by MK571", "setting": "[15]; 2 h co-incubation with 100 μM MK571, PEITC 5 μM", "result": 5.9, "unit": "fold"}, {"measurement": "increase of 14C tracer accumulation by MK571", "setting": "[15]; 2 h co-incubation with 100 μM MK571, PEITC 20 μM", "result": 1.9, "unit": "fold"}]}, {"smiles": "C[S+]([O-])CCCCN=C=S", "note": "(stereo not drawn) [Sulforaphane, sulforaphane]", "values": [{"measurement": "accumulation of intracellular sulforaphane with inhibitors of MRP1", "setting": "[1]; MRP1 over-expressing cells", "result": "increased"}, {"measurement": "Cmax", "setting": "[16]; 50 μmol oral (Table 1: 88.5 mg oral), plasma", "result": 20, "unit": "µM"}, {"measurement": "Half-life", "setting": "[16]; 50 μmol oral (Table 1: 88.5 mg oral)", "result": 2.23, "unit": "h"}, {"measurement": "Half-life", "setting": "[16]; 50 μmol oral (Table 1: 88.5 mg oral), listed as sulforaphane", "result": "about 2.2 h"}, {"measurement": "Tmax", "setting": "[16]; 88.5 mg oral", "result": 4, "unit": "h"}, {"measurement": "investigated as substrate (S)/inhibitor (I)", "setting": "[13]", "result": "Sulforaphane (S)"}, {"measurement": "accumulation of intracellular sulforaphane with inhibitors of P-gp", "setting": "[13]; P-gp over-expressing cells", "result": "increased"}]}, {"smiles": "CC[C@@]1(O)C(=O)OCc2c1cc1n(c2=O)Cc2cc3c(CN(C)C)c(O)ccc3nc2-1", "note": "[topotecan]", "values": [{"measurement": "AUC(0-inf)", "setting": "[17]; iv, 1 mg/kg, AUC0–∞, i.v. administration of 1 mg/kg topotecan, four rats", "result": 707, "unit": "ng·h/mL"}, {"measurement": "AUC(0-t)", "setting": "[17]; po, 2 mg/kg, AUC0–720 min, topotecan alone (2 mg/kg dose)", "result": 182, "unit": "ng·h/mL"}]}]}
